# Experimental data from ChEMBL document CHEMBL3132860 (Medchemcomm, 2013).
# Columns and labels:
# Estrogen receptor beta [1] = target: T1, Estrogen receptor beta (Homo sapiens, UniProt Q92731)
# Estrogen receptor = target: T2, Estrogen receptor (Homo sapiens, UniProt P03372)
# T2 sequence (P03372 whole entry): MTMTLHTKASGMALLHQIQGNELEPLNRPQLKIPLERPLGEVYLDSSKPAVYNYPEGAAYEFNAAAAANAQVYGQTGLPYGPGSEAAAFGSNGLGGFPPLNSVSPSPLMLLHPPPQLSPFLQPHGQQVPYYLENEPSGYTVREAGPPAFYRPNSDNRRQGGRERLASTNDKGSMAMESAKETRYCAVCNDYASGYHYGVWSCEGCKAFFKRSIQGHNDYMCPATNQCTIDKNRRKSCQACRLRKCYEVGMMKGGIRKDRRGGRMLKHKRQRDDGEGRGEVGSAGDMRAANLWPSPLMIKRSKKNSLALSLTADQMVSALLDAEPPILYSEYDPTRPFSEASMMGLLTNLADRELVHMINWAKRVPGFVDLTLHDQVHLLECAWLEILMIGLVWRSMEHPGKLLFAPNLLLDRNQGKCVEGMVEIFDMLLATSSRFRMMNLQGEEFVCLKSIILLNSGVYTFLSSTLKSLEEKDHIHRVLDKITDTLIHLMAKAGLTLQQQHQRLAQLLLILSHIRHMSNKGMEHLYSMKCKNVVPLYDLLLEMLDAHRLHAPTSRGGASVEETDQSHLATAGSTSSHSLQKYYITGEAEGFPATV
# Description: Agonist activity at ER-alpha (unknown origin) transfected in HEK293T cells after 24 hrs by Steady-Glo luciferase reporter gene assay
# Estrogen receptor beta [2] = target: T1, Estrogen receptor beta; experiment: Agonist activity at ER-beta (unknown origin) transfected in HEK293T cells after 24 hrs by Steady-Glo luciferase reporter gene assay relative to estradiol; type: cell-based; conditions: HEK-293T
# Estrogen receptor beta [3] = target: T1, Estrogen receptor beta; experiment: Agonist activity at human ER-beta transfected in human 293 cells assessed as ALP reporter protein expression after 72 hrs by chemiluminescence assay; type: cell-based
# T1 sequence (Q92731 whole entry): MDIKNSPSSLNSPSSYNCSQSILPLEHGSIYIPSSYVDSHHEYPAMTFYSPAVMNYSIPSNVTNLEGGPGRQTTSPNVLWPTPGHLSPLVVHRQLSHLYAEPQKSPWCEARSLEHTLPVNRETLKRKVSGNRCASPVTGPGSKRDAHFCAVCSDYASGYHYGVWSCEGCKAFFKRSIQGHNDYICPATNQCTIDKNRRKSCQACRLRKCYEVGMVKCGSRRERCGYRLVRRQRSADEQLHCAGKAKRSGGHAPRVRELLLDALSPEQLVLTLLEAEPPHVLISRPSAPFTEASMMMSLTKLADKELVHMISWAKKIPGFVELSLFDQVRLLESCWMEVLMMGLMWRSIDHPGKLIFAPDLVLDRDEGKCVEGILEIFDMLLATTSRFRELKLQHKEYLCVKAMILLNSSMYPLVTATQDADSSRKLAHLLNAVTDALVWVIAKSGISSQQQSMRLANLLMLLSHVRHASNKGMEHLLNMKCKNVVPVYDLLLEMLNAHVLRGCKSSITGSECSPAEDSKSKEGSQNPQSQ
SMILES,EC50 (Estrogen receptor beta [1]) [nM],EC50 (Estrogen receptor) [µM],Efficacy (Estrogen receptor beta [2]) [%],EC50 (Estrogen receptor beta [3]) [nM]
C[C@]12CC[C@H](c3ccc(O)cc3)C[C@H]1C[C@H](O)[C@H]2O,20,10,108,
C[C@]12CC[C@@H](c3ccc(O)cc3)C[C@H]1CCC2=O,126,7.94,144,
C[C@]12CCC(c3ccc(O)cc3)C[C@H]1CC[C@@H]2O (some centres undefined),0.398,0.0316,127,
C[C@]12CC[C@H](c3ccc(O)cc3)C[C@H]1CCC2=O,251,> 10,148,
C[C@]12CC[C@@H]3c4ccc(O)cc4CC[C@H]3[C@@H]1C[C@@H](O)[C@@H]2O [ESTRIOL],0.126,,,
C[C@]12CC[C@@H]3c4ccc(O)cc4CC[C@H]3[C@@H]1C[C@H](O)[C@H]2O,,,,11
